# Source: US20250312499A1, “KISSPEPTIN RECEPTOR (KISS1R) TARGETED THERAPEUTICS AND USES THEREOF” (priority 2024, published 2025)
# Numbered stars: 1 amine (or outer) side, 2 acyl side, 3 side chain; on linkers, the order of the positions; unused ones are H or OH. Square brackets hold non-standard residues; d marks the D form. Peptide text beside a SMILES is read from it. * marks the point of attachment. DOTA(Lu) = O=C1CN2CCN3CCN(CC(=O)*)CCN(CC2)CC(=O)[O][Lu]([O]1)[O]C(=O)C3; DOTA = O=C(O)CN1CCN(CC(=O)O)CCN(CC(=O)*)CCN(CC(=O)O)CC1; Gly(N-(3-F-4-Me-benzyl)) = Cc1ccc(CNCC(=O)*)cc1F; Butanoyl(4-(4-I-phenyl)) = O=C(CCCc1ccc(I)cc1)*; Butanoyl(4-(4-MePh)) = Cc1ccc(CCCC(=O)*)cc1; Api(1-amidino) = N=C(N)N1CCC(N)(C(=O)O)CC1; d(γGlu) = O=C(O)[C@@H](CCC(=O)[*:2])N[*:1]; Hydrocinnamoyl(4-I) = O=C(CCc1ccc(I)cc1)*; Phe(4-CN) = N#Cc1ccc(C[C@H](N)C(=O)O)cc1; X3 = CNC(=N)N1CCC(N[*:1])(C(=O)[*:2])CC1; HO(CH2CH2O)2CH2CH2CO = O=C(CCOCCOCCO)*; X9 = O=C(CCOCCOCCOCCOCCOCCOCCOCCOCCO)*; 2Nal = N[C@@H](Cc1ccc2ccccc2c1)C(=O)O; d2Nal = N[C@H](Cc1ccc2ccccc2c1)C(=O)O; Trx = NC[C@H]1CC[C@H](C(=O)O)CC1; 4Pal = N[C@@H](Cc1ccncc1)C(=O)O; d4Pal = N[C@H](Cc1ccncc1)C(=O)O; Cha = N[C@@H](CC1CCCCC1)C(=O)O; Lauroyl = CCCCCCCCCCCC(=O)*; X15 = O=C(CNCCc1ccc(I)cc1)*; 4Amb = NCc1ccc(C(=O)O)cc1; Api = NC1(C(=O)O)CCNCC1; PEG2 = NCCOCCOCCC(=O)O; AEEA = NCCOCCOCC(=O)O; Ahx = NCCCCCC(=O)O; azaGly = NNC(=O)O; Sar = CNCC(=O)O
# Target: human kisspeptin receptor (Homo sapiens (Human), UniProt Q969F8)
# Sequence (Q969F8 whole entry): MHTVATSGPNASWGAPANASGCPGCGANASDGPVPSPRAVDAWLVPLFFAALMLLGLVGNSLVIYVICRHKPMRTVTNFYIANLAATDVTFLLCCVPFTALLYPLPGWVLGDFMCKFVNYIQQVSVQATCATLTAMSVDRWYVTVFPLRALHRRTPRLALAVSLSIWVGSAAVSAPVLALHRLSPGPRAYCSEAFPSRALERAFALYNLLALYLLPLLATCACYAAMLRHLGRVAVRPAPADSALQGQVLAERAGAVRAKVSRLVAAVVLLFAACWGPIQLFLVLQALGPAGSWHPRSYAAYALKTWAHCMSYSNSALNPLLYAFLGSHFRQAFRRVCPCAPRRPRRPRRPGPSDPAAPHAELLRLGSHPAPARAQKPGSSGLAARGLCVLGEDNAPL
# Test: Human KISS1R binding assay (membrane competition binding)
# Details: not given
# Summary of the method: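 Membranes from tetracycline-induced (48 h) Flp-In T-Rex 293 cells expressing receptor, 5–10 μg, incubated 90 min at room temperature with 0.2 nM [125I]-metastin (45-54) and competitor (typically 0–10,000 nM) in Tris/Mg/Ca/EGTA/0.1% BSA, pH 7.4. Filtration, washing, counting; Ki by non-linear regression.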
row,SMILES,Ki
1,Cc1ccc(CNCC(=O)N2CCC(NC(=O)[C@H](CC(C)C)NC(=O)NNC(=O)[C@H](Cc3ccccc3)NC(=O)[C@@H](NC(=O)[C@H](CC(N)=O)NC(=O)[C@H](Cc3ccc4ccccc4c3)NC(=O)[C@@H](Cc3ccc(O)cc3)NC(=O)CCCCCNC(=O)CN3CCN4CCN5CCN(CC3)CC(=O)[O][Lu]([O]C(=O)C4)[O]C(=O)C5)[C@@H](C)O)(C(=O)N[C@@H](Cc3c[nH]c4ccccc34)C(N)=O)CC2)cc1F [Compound 118-Lu] ({DOTA(Lu)-Ahx}-[dY][2Nal]NTF[azaGly]L[Api](Gly(N-(3-F-4-Me-benzyl)))W-NH2),< 10 nM

# Same assay, conditions: 90 min at room temperature; competition with 0.2 nM [125I]-metastin (45-54); Flp-In T-Rex 293 kisspeptin membranes; metal complexes nonradioactive Ga, In, Lu; read-out: hKiSSR Binding Ki (90 min)
row,SMILES,Ki
1,Cc1ccc(CNCC(=O)N2CCC(NC(=O)[C@H](CC(C)C)NC(=O)NNC(=O)[C@H](Cc3ccccc3)NC(=O)[C@@H](NC(=O)[C@H](CC(N)=O)NC(=O)[C@@H](CCC(=O)O)NC(=O)c3ccc(CNC(=O)CN4CCN(CC(=O)O)CCN(CC(=O)O)CCN(CC(=O)O)CC4)cc3)[C@@H](C)O)(C(=O)N[C@@H](Cc3ccc(C#N)cc3)C(N)=O)CC2)cc1F [Compound 242] ({DOTA-4Amb}-[dE]NTF[azaGly]L[Api](Gly(N-(3-F-4-Me-benzyl)))[Phe(4-CN)]-NH2),< 10 nM
2,Cc1ccc(CNCC(=O)N2CCC(NC(=O)[C@H](CC(C)C)NC(=O)NNC(=O)[C@H](Cc3ccccc3)NC(=O)[C@@H](NC(=O)[C@H](CC(N)=O)NC(=O)[C@@H](Cc3c[nH]c4ccccc34)NC(=O)[C@@H](Cc3c[nH]cn3)NC(=O)[C@@H](Cc3ccc(O)cc3)NC(=O)CCCCCNC(=O)CN3CCN(CC(=O)O)CCN(CC(=O)O)CCN(CC(=O)O)CC3)[C@@H](C)O)(C(=O)N[C@@H](Cc3ccncc3)C(N)=O)CC2)cc1F [Compound 107] ({DOTA-Ahx}-[dY][dH][dW]NTF[azaGly]L[Api](Gly(N-(3-F-4-Me-benzyl)))[4Pal]-NH2),< 10 nM
3,Cc1ccc(CNCC(=O)N2CCC(NC(=O)c3ccc(-c4ccccc4OCCNC(=O)[C@H](Cc4ccccc4)NC(=O)CCCCCNC(=O)CN4CCN(CC(=O)O)CCN(CC(=O)O)CCN(CC(=O)O)CC4)cc3)(C(=O)N[C@@H](Cc3c[nH]c4ccccc34)C(N)=O)CC2)cc1F [Compound 283],10 to 100 nM
4,Cc1ccc(CNCC(=O)N2CCC(NC(=O)[C@@H](CC(C)C)SCCNC(=O)[C@H](Cc3ccccc3)NC(=O)CCCCCNC(=O)CN3CCN(CC(=O)O)CCN(CC(=O)O)CCN(CC(=O)O)CC3)(C(=O)N[C@@H](Cc3c[nH]c4ccccc34)C(N)=O)CC2)cc1F [Compound 137],< 10 nM
5,Cc1ccc(CNCC(=O)N2CCC(NC(=O)[C@H](CC(C)C)NC(=O)NNC(=O)[C@H](Cc3ccccc3)NC(=O)CN(C)C(=O)CN(C)C(=O)CN3CCN(CC(=O)O)CCN(CC(=O)O)CCN(CC(=O)O)CC3)(C(=O)N[C@@H](Cc3c[nH]c4ccccc34)C(N)=O)CC2)cc1F [Compound 17] ({DOTA}-[Sar][Sar]F[azaGly]L[Api](Gly(N-(3-F-4-Me-benzyl)))W-NH2),< 10 nM
6,CNC(=N)N1CCC(NC(=O)[C@H](CC(C)C)NC(=O)NNC(=O)[C@H](Cc2ccccc2)NC(=O)[C@@H](NC(=O)[C@H](CC(N)=O)NC(=O)[C@@H](Cc2ccc3ccccc3c2)NC(=O)[C@@H](Cc2ccc(O)cc2)NC(=O)CCCCCNC(=O)CN2CCN(CC(=O)O)CCN(CC(=O)O)CCN(CC(=O)O)CC2)[C@@H](C)O)(C(=O)N[C@H](Cc2c[nH]c3ccccc23)C(N)=O)CC1 [Compound 319] ({DOTA-Ahx}-[dY][d2Nal]NTF[azaGly]L[X3][dW]-NH2),> 100 nM
7,Cc1ccc(CNCC(=O)N2CCC(NC(=O)[C@H](CC(C)C)NC(=O)NNC(=O)[C@H](Cc3ccccc3)NC(=O)[C@@H](NC(=O)[C@H](CC(N)=O)NC(=O)[C@H](CCCCNC(=O)CN3CCN(CC(=O)O)CCN(CC(=O)O)CCN(CC(=O)O)CC3)NC(=O)[C@@H](Cc3ccc(O)cc3)NC(=O)CCOCCOCCO)[C@@H](C)O)(C(=O)N[C@@H](Cc3c[nH]c4ccccc34)C(N)=O)CC2)cc1F [Compound 379] ({HO(CH2CH2O)2CH2CH2CO}-[dY]K(DOTA)NTF[azaGly]L[Api](Gly(N-(3-F-4-Me-benzyl)))W-NH2),< 10 nM
8,Cc1ccc(CNCC(=O)N2CCC(NC(=O)[C@H](CC(C)C)NC(=O)NNC(=O)[C@H](Cc3ccccc3)NC(=O)[C@@H](NC(=O)[C@H](CC(N)=O)NC(=O)[C@@H](Cc3c[nH]c4ccccc34)NC(=O)[C@@H](Cc3ccc(O)cc3)NC(=O)COCCOCCNC(=O)CN3CCN(CC(=O)O)CCN(CC(=O)O)CCN(CC(=O)O)CC3)[C@@H](C)O)(C(=O)N[C@@H](Cc3c[nH]c4ccccc34)C(N)=O)CC2)cc1F [Compound 57] ({DOTA-AEEA}-[dY][dW]NTF[azaGly]L[Api](Gly(N-(3-F-4-Me-benzyl)))W-NH2),< 10 nM
9,CC(C)C[C@H](NC(=O)NNC(=O)[C@H](Cc1ccccc1)NC(=O)[C@@H](NC(=O)[C@H](CC(N)=O)NC(=O)[C@@H](Cc1ccc2ccccc2c1)NC(=O)[C@@H](Cc1ccc(O)cc1)NC(=O)CCCCCNC(=O)CN1CCN(CC(=O)O)CCN(CC(=O)O)CCN(CC(=O)O)CC1)[C@@H](C)O)C(=O)NC1(C(=O)N[C@H](Cc2c[nH]c3ccccc23)C(N)=O)CCN(C(=O)CNCCc2ccc(I)cc2)CC1 [Compound 373] ({DOTA-Ahx}-[dY][d2Nal]NTF[azaGly]L[Api](X15)[dW]-NH2),10 to 100 nM
10,Cc1ccc(CNCC(=O)N2CCC(NC(=O)[C@H](CC(C)C)NC(=O)NNC(=O)[C@H](Cc3ccccc3)NC(=O)[C@@H](NC(=O)[C@H](CC(N)=O)NC(=O)c3ccc(CNC(=O)[C@H](Cc4ccc(O)cc4)NC(=O)CNC(=O)CN4CCN(CC(=O)O)CCN(CC(=O)O)CCN(CC(=O)O)CC4)cc3)[C@@H](C)O)(C(=O)N[C@@H](Cc3c[nH]c4ccccc34)C(N)=O)CC2)cc1F [Compound 213] ({DOTA}-GY[4Amb]NTF[azaGly]L[Api](Gly(N-(3-F-4-Me-benzyl)))W-NH2),< 10 nM
11,CCCCCCCCCCCC(=O)N[C@H](Cc1ccc(O)cc1)C(=O)N[C@@H](CCCCNC(=O)CN1CCN(CC(=O)O)CCN(CC(=O)O)CCN(CC(=O)O)CC1)C(=O)N[C@@H](CC(N)=O)C(=O)N[C@H](C(=O)N[C@@H](Cc1ccccc1)C(=O)NNC(=O)N[C@@H](CC(C)C)C(=O)NC1(C(=O)N[C@@H](Cc2c[nH]c3ccccc23)C(N)=O)CCN(C(=N)N)CC1)[C@@H](C)O [Compound 329] (Lauroyl-[dY]K(DOTA)NTF[azaGly]L[Api(1-amidino)]W-NH2),< 10 nM
12,Cc1ccc(CNCC(=O)N2CCC(NC(=O)[C@H](CC(C)C)NC(=O)NNC(=O)[C@H](Cc3ccccc3)NC(=O)[C@@H](NC(=O)[C@H](CC(N)=O)NC(=O)[C@H](CCCCNC(=O)CN3CCN(CC(=O)O)CCN(CC(=O)O)CCN(CC(=O)O)CC3)NC(=O)CCOCCOCCOCCOCCOCCOCCOCCOCCO)[C@@H](C)O)(C(=O)N[C@@H](Cc3ccncc3)C(N)=O)CC2)cc1F [Compound 256] (X9-K(DOTA)NTF[azaGly]L[Api](Gly(N-(3-F-4-Me-benzyl)))[4Pal]-NH2),< 10 nM
13,CNCC(=O)N1CCC(NC(=O)[C@H](CC(C)C)NC(=O)NNC(=O)[C@H](Cc2ccccc2)NC(=O)[C@@H](NC(=O)[C@H](CC(N)=O)NC(=O)[C@@H](Cc2ccc3ccccc3c2)NC(=O)[C@@H](Cc2ccc(O)cc2)NC(=O)CCCc2ccc(I)cc2)[C@@H](C)O)(C(=O)N[C@@H](Cc2ccccc2)C(N)=O)CC1 [Compound 398] ({Butanoyl(4-(4-I-phenyl))}-[dY][d2Nal]NTF[azaGly]L[Api](Sar)F-NH2),< 10 nM
14,CC(C)C[C@H](NC(=O)NNC(=O)[C@H](Cc1ccccc1)NC(=O)[C@@H](NC(=O)[C@H](CC(N)=O)NC(=O)[C@@H](CCCCNC(=O)CN1CCN(CC(=O)O)CCN(CC(=O)O)CCN(CC(=O)O)CC1)NC(=O)[C@@H](Cc1ccc(O)cc1)NC(=O)CCOCCOCCNC(=O)CCc1ccc(I)cc1)[C@@H](C)O)C(=O)NC1(C(=O)N[C@@H](Cc2c[nH]c3ccccc23)C(N)=O)CCN(C(=N)N)CC1 [Compound 334] ({Hydrocinnamoyl(4-I)-PEG2}-[dY][dK](DOTA)NTF[azaGly]L[Api(1-amidino)]W-NH2),< 10 nM
15,Cc1ccc(CNCC(=O)N2CCC(NC(=O)[C@H](CC(C)C)NC(=O)NNC(=O)[C@H](Cc3ccccc3)NC(=O)[C@H]3CC[C@H](CNC(=O)CC[C@@H](NC(=O)CN4CCN(CC(=O)O)CCN(CC(=O)O)CCN(CC(=O)O)CC4)C(=O)O)CC3)(C(=O)N[C@@H](Cc3c[nH]c4ccccc34)C(N)=O)CC2)cc1F [Compound 165] ({DOTA-d(γGlu)-Trx}-F[azaGly]L[Api](Gly(N-(3-F-4-Me-benzyl)))W-NH2),< 10 nM
16,Cc1ccc(CNCC(=O)N2CCC(NC(=O)[C@H](CC(C)C)NC(=O)NNC(=O)[C@H](CC3CCCCC3)NC(=O)[C@@H](NC(=O)[C@H](CC(N)=O)NC(=O)[C@@H](Cc3ccncc3)NC(=O)[C@@H](Cc3ccc(O)cc3)NC(=O)CN3CCN(CC(=O)O)CCN(CC(=O)O)CCN(CC(=O)O)CC3)[C@@H](C)O)(C(=O)N[C@@H](Cc3c[nH]c4ccccc34)C(N)=O)CC2)cc1F [Compound 315] ({DOTA}-[dY][d4Pal]NT[Cha][azaGly]L[Api](Gly(N-(3-F-4-Me-benzyl)))W-NH2),< 10 nM
17,Cc1ccc(CNCC(=O)N2CCC(NC(=O)[C@H](CC(C)C)NC(=O)NNC(=O)[C@H](Cc3ccccc3)NC(=O)CN3CCN(CC(=O)O)CCN(CC(=O)O)CCN(CC(=O)O)CC3)(C(=O)N[C@@H](Cc3c[nH]c4ccccc34)C(N)=O)CC2)cc1F [Compound 49] ({DOTA}-F[azaGly]L[Api](Gly(N-(3-F-4-Me-benzyl)))W-NH2),> 100 nM
18,CNCC(=O)N1CCC(NC(=O)[C@H](CC(C)C)NC(=O)NNC(=O)[C@H](Cc2ccccc2)NC(=O)[C@@H](NC(=O)[C@H](CC(N)=O)NC(=O)[C@@H](Cc2ccc3ccccc3c2)NC(=O)[C@@H](Cc2ccc(O)cc2)NC(=O)CCCc2ccc(I)cc2)[C@@H](C)O)(C(=O)N[C@@H](Cc2ccc(O)cc2)C(N)=O)CC1 [Compound 399] ({Butanoyl(4-(4-I-phenyl))}-[dY][d2Nal]NTF[azaGly]L[Api](Sar)Y-NH2),< 10 nM
19,Cc1ccc(CCCC(=O)N2CCC(NC(=O)[C@H](CC(C)C)NC(=O)NNC(=O)[C@H](Cc3ccccc3)NC(=O)CCCCCNC(=O)CN3CCN(CC(=O)O)CCN(CC(=O)O)CCN(CC(=O)O)CC3)(C(=O)N[C@@H](Cc3c[nH]c4ccccc34)C(N)=O)CC2)cc1 [Compound 7] ({DOTA-Ahx}-F[azaGly]L[Api](Butanoyl(4-(4-MePh)))W-NH2),10 to 100 nM
